Reference: patent US20260262643A1, “HERBICIDAL BENZOXAZINES” (FMC CORPORATION, priority 2022, published 2026)

Columns and labels:
barnyardgrass = assay: Test B flooded paddy test; type: in vivo, Echinochloa crus-galli; details: 250 g ai/ha, Flood, 13 days, 0 to 100 scale (0 no effect, 100 complete control)
Outline: (§1)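 Visual scores from 0 (no effect) to 100 (complete kill) were assigned 13 days after treatment by comparison with controls. Seedlings had been treated at two leaves by adding compound to floodwater standing 3 cm deep, kept at that level in the greenhouse.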

wheat [1] = assay: Test A preemergence; type: in vivo, Triticum aestivum
Outline: (§2)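 Seeds in loam–sand blend received a directed preemergence soil spray of compound in non-phytotoxic solvent with surfactant; postemergence plants (2–10 cm, one- to two-leaf stage) were sprayed with the same formulation. After 10 days in greenhouse, injury was rated visually versus untreated controls, 0 (no effect) to 100 (complete control).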

kochia [2] = assay: Test A postemergence; type: in vivo, Bassia scoparia
Outline: as §2

ragweed [3] = assay: Test A postemergence; type: in vivo, Ambrosia artemisiifolia; details: for Plant response rating, Ragweed: 500 g ai/ha
Outline: as §2

pigweed, palmer [4] = assay: Test A postemergence; type: in vivo, Amaranthus palmeri; details: for Plant response rating, Pigweed, Palmer: 500 g ai/ha
Outline: as §2

ducksalad = assay: Test B flooded paddy test; type: in vivo, Heteranthera limosa; details: 250 g ai/ha, Flood, 13 days, 0 to 100 scale (0 no effect, 100 complete control)
Outline: as §1

kochia [5] = assay: Test A preemergence; type: in vivo, Bassia scoparia
Outline: as §2

ragweed [6] = assay: Test A preemergence; type: in vivo, Ambrosia artemisiifolia
Outline: as §2

blackgrass [7] = assay: Test A preemergence; type: in vivo, Alopecurus myosuroides
Outline: as §2

blackgrass [8] = assay: Test A postemergence; type: in vivo, Alopecurus myosuroides
Outline: as §2

goosegrass [9] = assay: Test A preemergence; type: in vivo, Eleusine indica
Outline: as §2

foxtail, giant [10] = assay: Test A preemergence; type: in vivo, Setaria faberi
Outline: as §2

foxtail, giant [11] = assay: Test A postemergence; type: in vivo, Setaria faberi
Outline: as §2

ryegrass, Italian [12] = assay: Test A postemergence; type: in vivo, Lolium multiflorum; details: for Plant response rating, Ryegrass, Italian: 500 g ai/ha
Outline: as §2

ryegrass, Italian [13] = assay: Test A preemergence; type: in vivo, Lolium multiflorum
Outline: as §2

soybean [14] = assay: Test A postemergence; type: in vivo, Glycine max; details: for Plant response rating, Soybean: 500 g ai/ha
Outline: as §2

wheat [15] = assay: Test A postemergence; type: in vivo, Triticum aestivum; details: for Plant response rating, Wheat: 500 g ai/ha
Outline: as §2

oat, wild [16] = assay: Test A postemergence; type: in vivo, Avena fatua; details: for Plant response rating, Oat, Wild: 500 g ai/ha
Outline: as §2

oat, wild [17] = assay: Test A preemergence; type: in vivo, Avena fatua
Outline: as §2

goosegrass [18] = assay: Test A postemergence; type: in vivo, Eleusine indica
Outline: as §2

sedge, umbrella = assay: Test B flooded paddy test; type: in vivo, Cyperus difformis; details: 250 g ai/ha, Flood, 13 days, 0 to 100 scale (0 no effect, 100 complete control)
Outline: as §1

corn [19] = assay: Test A postemergence; type: in vivo, Zea mays
Outline: as §2

rice = assay: Test B flooded paddy test; type: in vivo, Oryza sativa; details: 250 g ai/ha, Flood, 13 days, 0 to 100 scale (0 no effect, 100 complete control)
Outline: as §1

corn [20] = assay: Test A preemergence; type: in vivo, Zea mays
Outline: as §2

galium = assay: Test A postemergence; type: in vivo, Galium aparine
Outline: as §2

soybean [21] = assay: Test A preemergence; type: in vivo, Glycine max
Outline: as §2

horseweed = assay: Test A postemergence; type: in vivo, Erigeron canadensis
Outline: as §2

pigweed, palmer [22] = assay: Test A preemergence; type: in vivo, Amaranthus palmeri
Outline: as §2

[23] = 125 g ai/ha, visual injury after 10 days, 0 to 100 scale, 0 is no effect, 100 is complete control
[24] = 500 g ai/ha, 0 to 100 scale (0 no effect, 100 complete control), 10 days
[25] = 125 g ai/ha, postemergence, 10 days, 0 to 100 scale, 0 no effect, 100 complete control
[26] = 500 g ai/ha, postemergence, 10 days, visual injury, 0 to 100 scale (0 no effect, 100 complete control)
[27] = postemergence, 10 days, visual injury, 0 to 100 scale (0 no effect, 100 complete control)
[28] = 125 g ai/ha, postemergence, 10 days, visual injury, 0 to 100 scale (0 no effect, 100 complete control)
[29] = 500 g ai/ha, Postemergence, 0 to 100 scale

Cc1ccc(-n2cnc(C(C)(C)C)n2)cc1C(=O)N1C[C@H](C)Oc2c(C)cccc21 [Compound 100]
0: Plant response rating, Barnyardgrass (barnyardgrass) | Plant response rating, Rice (rice) | Plant response rating, Corn (corn [20]; [23])
40: Plant response rating, Ducksalad (ducksalad) | Plant response rating, Wheat (wheat [15]; [27]) | Plant response rating, Oat, Wild (oat, wild [17]; [23]) | Plant response rating, Corn (corn [20]; [24]) | Horseweed plant response rating (horseweed; [25])
100: Plant response rating, Pigweed, Palmer (pigweed, palmer [4]; [27]) | Plant response rating, Kochia (kochia [5]; [24]) | Plant response rating, Ragweed (ragweed [6]; [24]) | Plant response rating, Goosegrass (goosegrass [9]; [23]) | Plant response rating, Goosegrass (goosegrass [9]; [24]) | Plant response rating, Foxtail, Giant (foxtail, giant [10]; [23]) | Plant response rating, Foxtail, Giant (foxtail, giant [10]; [24]) | Plant response rating, Ryegrass, Italian (ryegrass, Italian [13]; [24]) | Soybean plant response rating (soybean [14]; [25]) | Plant response rating, Soybean (soybean [14]; [27]) | Plant response rating, Goosegrass (goosegrass [18]; [26]) | Plant response rating, Galium (galium; [26]) | Plant response rating, Soybean (soybean [21]; [24]) | Plant response rating, Pigweed, Palmer (pigweed, palmer [22]; [23]) | Plant response rating, Pigweed, Palmer (pigweed, palmer [22]; [24])
70: Plant response rating, Ragweed (ragweed [3]; [27]) | Pigweed, Palmer plant response rating (pigweed, palmer [4]; [25]) | Plant response rating, Blackgrass (blackgrass [7]; [24]) | Plant response rating, Oat, Wild (oat, wild [16]; [27]) | Goosegrass plant response rating (goosegrass [18]; [25]) | Corn plant response rating (corn [19]; [25]) | Plant response rating, Corn (corn [19]; [26]) | Plant response rating, Horseweed (horseweed; [26])
60: Plant response rating, Wheat (wheat [1]; [24]) | Ragweed plant response rating (ragweed [3]; [25]) | Plant response rating, Blackgrass (blackgrass [7]; [23])
55: Plant response rating, Sedge, Umbrella (sedge, umbrella)
80: Kochia plant response rating (kochia [2]; [25]) | Plant response rating, Ragweed (ragweed [6]; [23]) | Plant response rating, Ryegrass, Italian (ryegrass, Italian [12]; [27]) | Galium plant response rating (galium; [25]) | Plant response rating, Soybean (soybean [21]; [23])
50: Plant response rating, Wheat (wheat [1]; [23]) | Foxtail, Giant plant response rating (foxtail, giant [11]; [25]) | Ryegrass, Italian plant response rating (ryegrass, Italian [12]; [25])
30: Blackgrass plant response rating (blackgrass [8]; [25]) | Wheat plant response rating (wheat [15]; [25]) | Oat, Wild plant response rating (oat, wild [16]; [25])
90: Plant response rating, Kochia (kochia [2]; [26]) | Plant response rating, Kochia (kochia [5]; [23]) | Plant response rating, Blackgrass (blackgrass [8]; [26]) | Plant response rating, Foxtail, Giant (foxtail, giant [11]; [26]) | Plant response rating, Ryegrass, Italian (ryegrass, Italian [13]; [23]) | Plant response rating, Oat, Wild (oat, wild [17]; [24])

Cc1cccc2c1O[C@@H](C)CN2C(=O)c1cccc(-n2cnc(C(C)(C)C)n2)c1 [Compound 65]
30: Plant response rating, Blackgrass (blackgrass [8]; [28]) | Plant response rating, Soybean (soybean [21]; [23])
60: Plant response rating, Kochia (kochia [2]; [28])
0: Plant response rating, Barnyardgrass (barnyardgrass) | Plant response rating, Ragweed (ragweed [6]; [23]) | Plant response rating, Rice (rice) | Plant response rating, Horseweed (horseweed; [28])
50: Plant response rating, Foxtail, Giant (foxtail, giant [11]; [29]) | Plant response rating, Corn (corn [20]; [24])
70: Plant response rating, Wheat (wheat [1]; [24]) | Plant response rating, Pigweed, Palmer (pigweed, palmer [4]; Postemergence, 0 to 100 scale) | Plant response rating, Oat, Wild (oat, wild [17]; [23]) | Plant response rating, Corn (corn [19]; [29])
80: Plant response rating, Ragweed (ragweed [3]; Postemergence, 0 to 100 scale) | Plant response rating, Kochia (kochia [5]; [23]) | Plant response rating, Blackgrass (blackgrass [7]; [23]) | Plant response rating, Blackgrass (blackgrass [8]; [29]) | Plant response rating, Oat, Wild (oat, wild [17]; [24])
10: Plant response rating, Foxtail, Giant (foxtail, giant [11]; [28]) | Plant response rating, Goosegrass (goosegrass [18]; [28]) | Plant response rating, Corn (corn [19]; [28])
90: Plant response rating, Kochia (kochia [2]; [29]) | Plant response rating, Blackgrass (blackgrass [7]; [24]) | Plant response rating, Soybean (soybean [21]; [24]) | Plant response rating, Pigweed, Palmer (pigweed, palmer [22]; [23])
45: Plant response rating, Ducksalad (ducksalad)
95: Plant response rating, Sedge, Umbrella (sedge, umbrella)
100: Plant response rating, Kochia (kochia [5]; [24]) | Plant response rating, Goosegrass (goosegrass [9]; [23]) | Plant response rating, Goosegrass (goosegrass [9]; [24]) | Plant response rating, Foxtail, Giant (foxtail, giant [10]; [23]) | Plant response rating, Foxtail, Giant (foxtail, giant [10]; [24]) | Plant response rating, Ryegrass, Italian (ryegrass, Italian [12]; Postemergence, 0 to 100 scale) | Plant response rating, Ryegrass, Italian (ryegrass, Italian [13]; [23]) | Plant response rating, Ryegrass, Italian (ryegrass, Italian [13]; [24]) | Plant response rating, Soybean (soybean [14]; Postemergence, 0 to 100 scale) | Plant response rating, Galium (galium; [28]) | Plant response rating, Galium (galium; [29]) | Plant response rating, Pigweed, Palmer (pigweed, palmer [22]; [24])
40: Plant response rating, Wheat (wheat [1]; [23]) | Plant response rating, Ragweed (ragweed [6]; [24]) | Plant response rating, Goosegrass (goosegrass [18]; [29]) | Plant response rating, Corn (corn [20]; [23])
20: Plant response rating, Wheat (wheat [15]; Postemergence, 0 to 100 scale) | Plant response rating, Oat, Wild (oat, wild [16]; Postemergence, 0 to 100 scale) | Plant response rating, Horseweed (horseweed; [29])
